Assay [1] addresses T1, 5-HT7 receptors (Homo sapiens, UniProt P34969). Put plainly: Functional cAMP enzyme fragment complementation assay (HitHunter cAMP), antagonist Kb. The class given is cell-based. More on the design: expressed in transfected cells. As to conditions: cells expressing human 5HT7, antagonist mode with EC70 5-HT. The protocol:
Functional efficacy of the compounds of the disclosure on 5-HT7 serotonin receptors are measured in a cell based cAMP enzyme fragment complementation assay using the HitHunter cAMP assay (DiscoveRx). Cells stably expressing human 5HT7 receptors are plated in 96-well plates at 4000 cells/well, 16-20 hours prior to assay in growth media (Ultraculture medium, 2 mM GlutaMax and G418 1 mg/mL. Serial dilutions of the agonist, 5-hydroxytryptamine (5-HT), are prepared in a final concentration range of 10 μM to 10 nM. Compounds of the disclosure are prepared in 3-fold serial dilutions to obtain a final concentration range of 10 μM to 0.1 nM. Compounds of the disclosure are tested for agonist activity in the absence of 5-HT and antagonist activity in the presence of 5-HT. For the cAMP assay, the protocol is followed according to the instructions provided by the supplier. Briefly, cells are incubated with a compound of the disclosure for 30 minutes at 37° C. prior to addition of EC70 concentration of 5-HT. After an additional 30 minutes, cAMP antibody/cell lysis solution is added (20 μL/well) and incubated for 60 minutes at room temperature. cAMP XS+EA reagent is added (20 μL/well) and incubated for 2 hours at room temperature. Luminescence is read on the Envision Multilabel plate reader.

The target in assay [2] is T1, 5-HT7 receptors. Briefly: Radiolabeled binding ([3H]LSD competition, membrane fractions).

T1 sequence (P34969 whole entry, the tested form may be a part): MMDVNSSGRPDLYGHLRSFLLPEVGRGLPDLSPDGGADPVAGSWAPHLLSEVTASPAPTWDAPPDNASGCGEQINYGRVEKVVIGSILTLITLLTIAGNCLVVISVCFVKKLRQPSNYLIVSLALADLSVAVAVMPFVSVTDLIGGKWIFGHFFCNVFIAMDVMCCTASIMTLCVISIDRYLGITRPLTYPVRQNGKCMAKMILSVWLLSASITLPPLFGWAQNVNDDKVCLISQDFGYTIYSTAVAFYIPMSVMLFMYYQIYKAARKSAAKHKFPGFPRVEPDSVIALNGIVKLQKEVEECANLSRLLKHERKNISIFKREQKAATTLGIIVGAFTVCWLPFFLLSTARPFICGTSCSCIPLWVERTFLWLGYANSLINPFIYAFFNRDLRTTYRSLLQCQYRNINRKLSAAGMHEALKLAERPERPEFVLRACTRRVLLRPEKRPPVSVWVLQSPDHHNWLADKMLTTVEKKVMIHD

As a reminder, the Kb is the affinity of an antagonist, worked out from how it opposes an agonist. Lower therefore signals higher antagonist affinity. The compound `CC(=O)NCC(=O)N1CCC2(CC1)C[C@H](CCN1CCN(c3ccc(F)cc3)CC1)OC2=O` [Compound 6] registered a Kb on 5-HT7 receptors [1] of 10 to 100 nM.

Usually Ki stands for a dissociation constant, usually derived from enzyme kinetics or from competition with a known ligand. A low value points to a stronger hold on the target. `CS(=O)(=O)NCC(=O)N1CCC2(CC1)C[C@H](CCN1CCN(c3cccc(Cl)c3)CC1)OC2=O` [Compound 9]: the Kb at 5-HT7 receptors [1] fell in the range of 10 to 100 nM. At 5-HT7 receptors [2], the Ki lay in the range of 50 to 200 nM.

Values taken from patent US20230025932A1, “NOVEL FUNCTIONALIZED LACTONES AS MODULATORS OF THE 5-HYDROXYTRYPTAMINE RECEPTOR 7 AND THEIR METHOD OF USE” (Temple University-Of The Commonwealth System of Higher …, priority 2019, published 2023).
